Experimental data from paper PMC11601558, “SLC6A19 inhibition facilitates urinary neutral amino acid excretion and lowers plasma phenylalanine” (JCI Insight, 2024).
“And” between values parts separate entries of the source, which are not always exact repeats. Identical values can stand only once.

Tests used:
SLC6A8 = test system: T1, SLC6A8; test: SLC6A8 creatine transport assay; type: cell-based, human; conditions: for SLC6A8 transport (Fig S2 curve point): technical replicates
T1 construct: V5; expressed in transfected cells; host or cells: Flp-In T-Rex 293 cells (Thermo Fisher), tetracycline-induced
Protocol: Supplementary Materials and Methods
Flp-In T-Rex 293 cells (Thermo Fisher) were engineered to induciblyexpress either V5-tagged human SLC1A5, SLC6A8 or SLC7A5 co-expressed with myc-DDK-tagged SLC3A2. Cells expressing SLC 1A5 or SLC6A8 were maintained in either DMEM or DMEM/F12 media supplemented with 10% FBS, 100 U/mL penicillin, 100 μg/mL streptomycin, 200 μg/mL hygromycin, and 10 μg/mL blasticidin. For cells expressing SLC7A5/SLC3A2, the media was additionally supplemented with 300 μg/mL geneticin. All cell lines were maintained at 37°C and 5% CO2. For transport experiments, all cell lines were plated in poly-D-lysine-coated 96-well plates at a density of 35,000 cells/well. One day after plating, expression of SLC1A5, SLC6A8 or SLC7A5 was induced by adding tetracycline at a concentration of 1 μg/mL. Cells were induced for 24 h prior to transport assays. […]
SLC6A8 creatine transport assay
Following a 24 h induction with tetracycline, cells were washed with PBS before JNT -517 was added in 8-point concentration-response diluted in DMEM. 3-guanidinopropionic acid was used as a positive control (33)at a concentrationof 1 mM and 0.5% DMSO was used as a negative control. Cells were incubated in a cell culture incubator for 30 minutes at 37°C and 5% CO 2 before 15 mM D3-labeled creatine (CDN Isotopes) was added as a transport substrate. After a 15 min incubation at 37°C and 5% CO2, cells were washed once with PBS. Cells were lysed in H2O with 500 nM D5-labeled creatine (CDN isotopes) as an internal standard for 1 h at 37°C.
Following lysis, a standard curve of dilution of D3-creatine was added to the last row of each plate. Plates were centrifuged for 5 min and supernatant was diluted 1:2 in H 2O. Sample desalting was performed on a high throughput Agilent RapidFire-365. From the analytical injection plate, approximately 40 μL of sample was desalted through an Agilent RapidFire Cartridge Graphitic Carbon Type D (G9206A) using water with 0.1% ammo nium hydroxide as the loading mobile phase A for 3000 milliseconds at a flow rate of 1.5 mL/min. The sample was then eluted from the cartridge using 80% acetonitrile containing 0.1% ammonium hydroxide for […]
An Agilent Q -ToF 6545 was […]
used as the analyzing mass spectrometer via electrospray ionization. Capillary voltage was set to 3 kV, with a gas temperature of 350°C. Nitrogen drying gas was applied at 12 L/min with a pressure of 40 psi, and sheath gas was set to 375°C with a flow of 12 L/min. All data were collected with a positive ion polarity and stored as centroid data. Agilent MassHunter QToF was […]
used as the integration software for measuring area under the peak for both D3 -creatine and D5-creatine as the internal standard. A linear regression was used from a standard curve of D3 - creatine to calculate absolute concentration from peak area. […]
Microbeta2 microplate counter (PerkinElmer). […]

healthy volunteers = test: Plasma amino acid levels in healthy volunteers (MAD); type: in vivo, human
Protocol: The effect of JNT-517 on plasma and urine AA levels was measured using an ultra-performance liquid chromatography mass spectrometry assay following 6-aminoquinolyl-N-hydroxysuccinimidyl carbamate (AQC) derivatization. For the SAD study, plasma samples were collected on day –1 and day 1 predose, as well as 24, 48, and 72 hours after dosing. A first morning void urine sample on Days –1 and 1 predose, as well as 2 pooled urine samples 0–8 hours after and 8–24 hours after dose were also collected following study drug administration. For the MAD study, plasma samples were collected on day –1, 1, 7, and 14 predose, as well as day 14, 24 hours after dosing. A first morning void urine samples on day –1, 1, 7, and 14 as well as 2 pooled urine samples 0–8 hours and 8–24 hours after dose on days 1, 7, and 14 were also collected following JNT-517 or placebo administration. Study participants in SAD and MAD cohorts were dosed in the morning following an overnight fast of at least 8 hours and were provided the following meals in relation to dosing times: breakfast after the morning dose, lunch 4 hours after morning dose, optional snack in the afternoon 8 hours after the morning dose and after the second dose for MAD cohorts dosed BID, dinner approximately 10 hours after the morning dose and at least 2 hours after the second dose for MAD cohorts dosed BID. Predose plasma amino acids were drawn after a minimum of 8 hours fasting overnight and after-dose levels were drawn after > 1.5 hours fasting. Resulting plasma and urine amino acid concentration measurements, as well a total amino acid excretion over a time period were summarized using appropriate descriptive statistics and compared with either predose levels or placebo-dose values. Tryptophan was not included in the amino acid panel due to analytical limitations.

NC(=O)N1CCC[C@@H](N(C(=O)NCc2ccc(OC(F)(F)F)cc2F)C2CC2)C1 [JNT-517]
SLC6A8 transport (Fig S2 curve point) (SLC6A8; 0.0160037 uM): 97.4 and 85.6 | SLC6A8 transport (Fig S2 curve point) (SLC6A8; 0.048011 uM): 94 and 85 | SLC6A8 transport (Fig S2 curve point) (SLC6A8; 0.144033 uM): 99.7 and 86.6 | SLC6A8 transport (Fig S2 curve point) (SLC6A8; 0.432099 uM): 93.6 and 86.7 | SLC6A8 transport (Fig S2 curve point) (SLC6A8; 1.2963 uM): 93.8 and 90.6 | SLC6A8 transport (Fig S2 curve point) (SLC6A8; 3.88889 uM): 97.6 and 89.5 | SLC6A8 transport (Fig S2 curve point) (SLC6A8; 11.6667 uM): 90.1 and 92.7 | SLC6A8 transport (Fig S2 curve point) (SLC6A8; 35 uM): 95.9 and 86.1 | inhibition of SLC6A8 (SLC6A8; concentrations up to 35 μM): did not inhibit | number of subjects with plasma Alanine below lower limit of normal (healthy volunteers; MAD 25 mg BID, Post-dose): 0 | number of subjects with plasma Arginine below lower limit of normal (healthy volunteers; MAD 25 mg BID, Post-dose): 0 | number of subjects with plasma Asparagine below lower limit of normal (healthy volunteers; MAD 25 mg BID, Post-dose): 0 | number of subjects with plasma Cystine below lower limit of normal (healthy volunteers; MAD 25 mg BID, Post-dose): 5 | number of subjects with plasma Glutamate below lower limit of normal (healthy volunteers; MAD 25 mg BID, Post-dose): 0 | number of subjects with plasma Glutamine below lower limit of normal (healthy volunteers; MAD 25 mg BID, Post-dose): 0 | number of subjects with plasma Glycine below lower limit of normal (healthy volunteers; MAD 25 mg BID, Post-dose): 0 | number of subjects with plasma Isoleucine below lower limit of normal (healthy volunteers; MAD 25 mg BID, Post-dose): 0 | number of subjects with plasma Leucine below lower limit of normal (healthy volunteers; MAD 25 mg BID, Post-dose): 0 | number of subjects with plasma Lysine below lower limit of normal (healthy volunteers; MAD 25 mg BID, Post-dose): 0 | number of subjects with plasma Methionine below lower limit of normal (healthy volunteers; MAD 25 mg BID, Post-dose): 0 | number of subjects with plasma Phenylalanine below lower limit of normal (healthy volunteers; MAD 25 mg BID, Post-dose): 0 | number of subjects with plasma Proline below lower limit of normal (healthy volunteers; MAD 25 mg BID, Post-dose): 0 | number of subjects with plasma Serine below lower limit of normal (healthy volunteers; MAD 25 mg BID, Post-dose): 0 | number of subjects with plasma Threonine below lower limit of normal (healthy volunteers; MAD 25 mg BID, Post-dose): 0 | number of subjects with plasma Tyrosine below lower limit of normal (healthy volunteers; MAD 25 mg BID, Post-dose): 0 | number of subjects with plasma Valine below lower limit of normal (healthy volunteers; MAD 25 mg BID, Post-dose): 0 | number of subjects with plasma Alanine below lower limit of normal (healthy volunteers; MAD 75 mg BID, Post-dose): 0 | number of subjects with plasma Arginine below lower limit of normal (healthy volunteers; MAD 75 mg BID, Post-dose): 0 | number of subjects with plasma Asparagine below lower limit of normal (healthy volunteers; MAD 75 mg BID, Post-dose): 0 | number of subjects with plasma Cystine below lower limit of normal (healthy volunteers; MAD 75 mg BID, Post-dose): 0 | number of subjects with plasma Glutamate below lower limit of normal (healthy volunteers; MAD 75 mg BID, Post-dose): 0 | number of subjects with plasma Glutamine below lower limit of normal (healthy volunteers; MAD 75 mg BID, Post-dose): 0 | number of subjects with plasma Glycine below lower limit of normal (healthy volunteers; MAD 75 mg BID, Post-dose): 0 | number of subjects with plasma Isoleucine below lower limit of normal (healthy volunteers; MAD 75 mg BID, Post-dose): 0 | number of subjects with plasma Leucine below lower limit of normal (healthy volunteers; MAD 75 mg BID, Post-dose): 0 | number of subjects with plasma Lysine below lower limit of normal (healthy volunteers; MAD 75 mg BID, Post-dose): 0 | number of subjects with plasma Methionine below lower limit of normal (healthy volunteers; MAD 75 mg BID, Post-dose): 0 | number of subjects with plasma Phenylalanine below lower limit of normal (healthy volunteers; MAD 75 mg BID, Post-dose): 0 | number of subjects with plasma Proline below lower limit of normal (healthy volunteers; MAD 75 mg BID, Post-dose): 0 | number of subjects with plasma Serine below lower limit of normal (healthy volunteers; MAD 75 mg BID, Post-dose): 0 | number of subjects with plasma Threonine below lower limit of normal (healthy volunteers; MAD 75 mg BID, Post-dose): 0 | number of subjects with plasma Tyrosine below lower limit of normal (healthy volunteers; MAD 75 mg BID, Post-dose): 0 | number of subjects with plasma Valine below lower limit of normal (healthy volunteers; MAD 75 mg BID, Post-dose): 0 | number of subjects with plasma Alanine below lower limit of normal (healthy volunteers; MAD 150 mg QD, Post-dose): 0 | number of subjects with plasma Arginine below lower limit of normal (healthy volunteers; MAD 150 mg QD, Post-dose): 0 | number of subjects with plasma Asparagine below lower limit of normal (healthy volunteers; MAD 150 mg QD, Post-dose): 0 | number of subjects with plasma Cystine below lower limit of normal (healthy volunteers; MAD 150 mg QD, Post-dose): 5 | number of subjects with plasma Glutamate below lower limit of normal (healthy volunteers; MAD 150 mg QD, Post-dose): 0 | number of subjects with plasma Glutamine below lower limit of normal (healthy volunteers; MAD 150 mg QD, Post-dose): 0 | number of subjects with plasma Glycine below lower limit of normal (healthy volunteers; MAD 150 mg QD, Post-dose): 0 | number of subjects with plasma Isoleucine below lower limit of normal (healthy volunteers; MAD 150 mg QD, Post-dose): 0 | number of subjects with plasma Leucine below lower limit of normal (healthy volunteers; MAD 150 mg QD, Post-dose): 0 | number of subjects with plasma Lysine below lower limit of normal (healthy volunteers; MAD 150 mg QD, Post-dose): 0 | number of subjects with plasma Methionine below lower limit of normal (healthy volunteers; MAD 150 mg QD, Post-dose): 0 | number of subjects with plasma Phenylalanine below lower limit of normal (healthy volunteers; MAD 150 mg QD, Post-dose): 0 | number of subjects with plasma Proline below lower limit of normal (healthy volunteers; MAD 150 mg QD, Post-dose): 0 | number of subjects with plasma Threonine below lower limit of normal (healthy volunteers; MAD 150 mg QD, Post-dose): 0 | number of subjects with plasma Valine below lower limit of normal (healthy volunteers; MAD 150 mg QD, Post-dose): 0 | number of subjects with plasma Serine below lower limit of normal (healthy volunteers; MAD 150 mg QD, Post-dose (16.7%)): 1 | number of subjects with plasma Tyrosine below lower limit of normal (healthy volunteers; MAD 150 mg QD, Post-dose (33.3%)): 2
